Results taken from patent US20050171358A1 (priority 2002, published 2005).

Legend:
[1] = system: Pseudoperonospora cubensis; experiment: Effect test for cucumber downy mildew (Evaluation Example 4); assay type: in vivo; conditions: 125 ppm, 200 L/10 a spray on cucumber (3 leaf stage), inoculated next day; diseased area rates of first and second true leaves after 3 days in green house, graded by Table 5
Experimental: The active ingredient compound was diluted with water containing 0.01% Tween 20 to have a concentration of 125 ppm. […] Next day, a zoosporangium suspension of Pseudoperonospora cubensis which was the causative fungus of cucumber downy mildew was sprayed to inoculate.

Phytophthora infestans = assay type: in vivo; conditions: 125 ppm, 200 L/10 a spray on tomato (5 leaf stage), inoculated next day; diseased area rates of third to fifth true leaves after 3 days in green house, graded by Table 5
Pyricularia oryzae = assay type: in vivo; conditions: 200 ppm spray on rice (Koshihikari, 3 leaf stage), inoculated next day; lesion numbers on third leaves after 7 days in green house, graded by Table 5
[2] = system: Colletotrichum lagenarium; conditions: 200 ppm spray on cucumber (3 leaf stage), inoculated next day; lesion numbers on first and second leaves after 7 days in green house, graded by Table 5

Row | Compound | Evaluation (effect for cucumber downy mildew) [1] | Evaluation (effect for tomato late blight) (Phytophthora infestans) | Evaluation (effect for rice blast) (Pyricularia oryzae) | Evaluation (effect for cucumber anthracnose) [2]
1 | O=C(NCc1cc(CCl)no1)NC1CCCCC1 [II-105, 3-(3-chloromethyl-5-isoxazolyl)methyl-1-cyclohexylurea] | 4 (1˜5) | 5 (0) | 2 (11˜20) | 
2 | O=C(NCc1cc(CI)no1)NC1CCCCC1 [II-115, 3-(3-iodomethyl-5-isoxazolyl)methyl-1-cyclohexylurea] | 1 (21˜41) | 3 (6˜10) | 3 (6˜10) | 2 (11˜20)
3 | Cc1ccc(C(=O)NCc2cc(CCl)no2)cc1 [III-2, N-[(3-chloromethyl-5-isoxazolyl)methyl]-4-methylbenzamide] | 5 (0) | 5 (0) | 4 (1˜5) | 4 (1˜5)
4 | O=C(NCc1cc(CCl)no1)c1ccc(Cl)c(Cl)c1 [III-272, N-[(3-chloromethyl-5-isoxazolyl)methyl]-3,4-dichlorobenzamide] | 3 (6˜10) | 5 (0) |  | 
5 | Cc1cccc(C(=O)NCc2cc(CCl)no2)c1 [III-274, N-[(3-chloromethyl-5-isoxazolyl)methyl]-3-methylbenzamide] | 2 (11˜20) | 4 (1˜5) |  | 
6 | O=C(NCc1cc(CCl)no1)c1cccc(Cl)c1 [III-277, N-[(3-chloromethyl-5-isoxazolyl)methyl]-3-chlorobenzamide] | 2 (11˜20) | 4 (1˜5) |  | 
7 | O=C(NCc1cc(CCl)no1)c1ccc([N+](=O)[O-])cc1 [III-278, N-[(3-chloromethyl-5-isoxazolyl)methyl]-4-nitrobenzamide] | 2 (11˜20) | 4 (1˜5) |  | 
8 | CS(=O)(=O)c1ccc(C(=O)NCc2cc(CCl)no2)c(Cl)c1 [III-279, N-[(3-chloromethyl-5-isoxazolyl)methyl]-2-chloro-4-methanesulfonylbenzamide] | 3 (6˜10) | 5 (0) |  | 
